“Also recorded” adds a separate entry of the source. Counter-ions that a name gives are not always drawn.
Key:
[1] = biological target: T1, butyrylcholinesterase (BuChE) enzyme (Homo sapiens (Human), UniProt P06276); assay: In-vitro butyryl cholinesterase inhibitory activity (DTNB, 96-well); format: biochemical; conditions: for IC50: read-out: Butyrylcholinesterase Inhibition Activity IC50 ± SEM; for Butyrylcholinesterase inhibition, rating in words: compared with standard galantamine hydrobromide
Protocol: After that 10 μL of pre-prepared butyrylthiocholine chloride (0.5 mM) substrate was added in the dark for 15 minutes, followed by the addition DTNB (0.5 mM), to produce thionitrobenzoate (TNB), whose absorbance range in 412 nm. 5-Thio-2 nitrobenzoate (TNB) (yellow color) anion was produced when thiocholine binds with DTNB which was measured in the form of absorbance in each well. Each compound was evaluated in triplicate at 0.5 mM.
The enzyme inhibitory activity was calculated using the following formula: Percent Inhibition=100−(O.D. of test/O.D. of control)×100
Where test is the enzyme activity with sample, and control is the enzyme activity without sample, and O.D. is optical density.
The IC50 of the compounds was calculated using EZ-Fit Enzyme Kinetic Program (Perrella Scientific Inc., Amhrest, U.S.A.).

[2] = biological target: T1, butyrylcholinesterase (BuChE) enzyme; assay: Kinetic studies of butyrylcholinesterase inhibition (L-B reciprocal plots); format: biochemical; conditions: four substrate concentrations (0.05, 0.1, 0.2, 0.4 mM); for Ki: read-out: Butyrylcholinesterase Inhibition Activity Ki ± SEM
Protocol: 0.5 mM concentrations of each inhibitor, as well as control, were examined for their butyrylcholinesterase inhibitory activity using four different substrate concentrations (0.05, 0.1, 0.2, and 0.4 mM).

[3] = butyrylthiocholine chloride substrate, pH 8.0, 25° C.

T1 sequence (P06276 29-602): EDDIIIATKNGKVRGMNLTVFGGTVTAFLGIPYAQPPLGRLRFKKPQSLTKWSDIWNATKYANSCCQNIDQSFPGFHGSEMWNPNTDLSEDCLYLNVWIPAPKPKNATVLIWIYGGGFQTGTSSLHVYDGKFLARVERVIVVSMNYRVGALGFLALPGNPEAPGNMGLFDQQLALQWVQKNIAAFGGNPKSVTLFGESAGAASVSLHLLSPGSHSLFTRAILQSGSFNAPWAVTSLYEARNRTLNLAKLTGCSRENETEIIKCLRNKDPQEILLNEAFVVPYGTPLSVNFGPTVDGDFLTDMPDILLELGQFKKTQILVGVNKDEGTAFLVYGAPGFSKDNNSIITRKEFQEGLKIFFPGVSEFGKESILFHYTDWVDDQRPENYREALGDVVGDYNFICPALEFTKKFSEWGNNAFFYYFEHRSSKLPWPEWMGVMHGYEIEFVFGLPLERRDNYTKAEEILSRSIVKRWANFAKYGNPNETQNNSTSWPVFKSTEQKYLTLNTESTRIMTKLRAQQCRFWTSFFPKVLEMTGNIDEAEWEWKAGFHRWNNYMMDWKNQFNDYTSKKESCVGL

Row | SMILES | IC50 [1, 3] | Butyrylcholinesterase inhibition, rating in words [1] | Butyrylcholinesterase Inhibition Activity IC50 ± SEM [1, 3] | Type of inhibition of butyrylcholinesterase [2] | Ki [2]
1 | Cc1c(N)c(=O)n(-c2ccccc2)n1C [4-aminoantipyrine, 4-Aminoantipyrine] | 69.7 ± 0.4 µM | moderate inhibitor | – | – | –
2 | Cc1c(N(Cc2cccc(Cl)c2)Cc2cccc(Cl)c2)c(=O)n(-c2ccccc2)n1C [Compound 1, 4-(Bis(3-chlorobenzyl)amino)-1,5-dimethyl-2-phenyl-1,2-dihydro-3H-pyrazol-3-one] | 0.1 µM | potent inhibitors | – | – | –
3 | Cc1c(N(Cc2ccccc2Cl)Cc2ccccc2Cl)c(=O)n(-c2ccccc2)n1C [Compound 2, 4-(Bis(2-chlorobenzyl)amino)-1,5-dimethyl-2-phenyl-1,2-dihydro-3H-pyrazol-3-one] | 0.5 µM | potent inhibitors | – | – | –
4 | Cc1c(N(Cc2cccc(I)c2)Cc2cccc(I)c2)c(=O)n(-c2ccccc2)n1C [Compound 3, 4-(Bis(3-iodobenzyl)amino)-1,5-dimethyl-2-phenyl-1,2-dihydro-3H-pyrazol-3-one] | 0.4 µM | potent inhibitors | – | – | –
5 | Cc1c(N(Cc2ccccc2I)Cc2ccccc2I)c(=O)n(-c2ccccc2)n1C [Compound 4, 4-(Bis(2-iodobenzyl)amino)-1,5-dimethyl-2-phenyl-1,2-dihydro-3H-pyrazol-3-one] | – | completely inactive | Not Active | – | –
6 | Cc1c(N(Cc2ccc(I)cc2)Cc2ccc(I)cc2)c(=O)n(-c2ccccc2)n1C [Compound 5, 4-(Bis(4-iodobenzyl)amino)-1,5-dimethyl-2-phenyl-1,2-dihydro-3H-pyrazol-3-one] | 2.43 µM | potent inhibitors | – | competitive inhibition; also recorded: Competitive Inhibitor | 5.67 µM
7 | Cc1c(N(Cc2ccccc2Br)Cc2ccccc2Br)c(=O)n(-c2ccccc2)n1C [Compound 6, 4-(Bis(2-bromobenzyl)amino)-1,5-dimethyl-2-phenyl-1,2-dihydro-3H-pyrazol-3-one] | 0.7 µM | potent inhibitors | – | non-competitive type of inhibition; also recorded: Non-competitive Inhibitor | 2.4 µM
8 | Cc1c(N(Cc2ccc(Br)cc2)Cc2ccc(Br)cc2)c(=O)n(-c2ccccc2)n1C [Compound 7, 4-(Bis(4-bromobenzyl)amino)-1,5-dimethyl-2-phenyl-1,2-dihydro-3H-pyrazol-3-one] | 58.7 ± 0.4 µM | moderate inhibitor | – | – | –
9 | Cc1c(N(Cc2cccc(Br)c2)Cc2cccc(Br)c2)c(=O)n(-c2ccccc2)n1C [Compound 8, 4-(Bis(3-bromobenzyl)amino)-1,5-dimethyl-2-phenyl-1,2-dihydro-3H-pyrazol-3-one] | 0.0262 µM | potent inhibitors | – | – | –
10 | COc1ccc2c3c1O[C@H]1C[C@@H](O)C=C[C@@]31CCN(C)C2 [galantamine hydrobromide, reference compound] | – | – | – | Mixed type Inhibitor | –

— patent US11643395B2, “Derivatives of 4-aminoantipyrine as anti-Alzheimers butyrylcholinesterase inhibitors” (priority 2021, dated 2023)
